Where “and” joins values, the source holds several entries; their conditions need not be identical. Equal entries are not always repeated.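 Dose response: 5 concentrations. Exposure: 48 h. Format: 96-well plates. Endpoint: linear interpolation; highest concentration if not reached. Abbreviation: GI50, concentration required for 50% inhibition of growth. At the TGI there is no net growth.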
What was measured:
Assay in all cases: NCI tumour cell line growth inhibition, 48 h
A498 renal = tested on: A498 renal
UO-31 renal = tested on: UO-31 renal
HT29 colon = tested on: HT29 colon
RPMI-8226 leukemia = tested on: RPMI-8226 leukemia
MOLT-4 leukemia = tested on: MOLT-4 leukemia
HCT-116 colon = tested on: HCT-116 colon
HCT-15 colon = tested on: HCT-15 colon
SK-MEL-5 melanoma = tested on: SK-MEL-5 melanoma
IGROV1 ovarian = tested on: IGROV1 ovarian
DU-145 prostate = tested on: DU-145 prostate

| Structure (SMILES) | TGI (A498 renal) [µM] | TGI (UO-31 renal) | TGI (HT29 colon) | TGI (RPMI-8226 leukemia) | TGI (MOLT-4 leukemia) | TGI (HCT-116 colon) | TGI (HCT-15 colon) | TGI (SK-MEL-5 melanoma) | TGI (IGROV1 ovarian) | GI50 (A498 renal) [µM] | GI50 (UO-31 renal) [µM] | GI50 (HT29 colon) [µM] | GI50 (MOLT-4 leukemia) | GI50 (HCT-116 colon) [µM] | GI50 (HCT-15 colon) [µM] | GI50 (SK-MEL-5 melanoma) [µM] | GI50 (IGROV1 ovarian) [µM] | GI50 (DU-145 prostate) [µM] | TGI (DU-145 prostate) [µM] | GI50 (RPMI-8226 leukemia) [µM] |
| --- | --- | --- | --- | --- | --- | --- | --- | --- | --- | --- | --- | --- | --- | --- | --- | --- | --- | --- | --- | --- |
| CS(=O)(=O)c1ccc(COP(N)(=O)N(CCCl)CCCl)cc1 (stereo unspecified) | > 100 | > 100 µM | > 100 µM | > 100 µM | > 100 µM | > 100 µM | > 100 µM | > 100 µM | > 100 µM | – | – | – | – | – | – | – | – | – | – | – |
| NC1=NC(SCc2ccccc2CCl)c2ncn(Cc3ccccc3CCl)c2N1 (stereo unspecified) | 25.3 | 3.08 µM | 4.01 µM | – | 6.03 µM | 3.06 µM | 12.3 µM | 3.25 µM | 3.57 µM | 8.51 | 1.51 | 1.88 | 2.04 µM | 1.47 | 2.9 | 1.71 | 1.52 | 1.35 | 2.7 | – |
| Cc1ccc(SSCC(O)C(O)CSSc2ccc(C)cc2)cc1 (stereo unspecified) | 18 | 17.6 µM and 15.3 µM | 27.8 µM and 49.8 µM | 12.8 µM and 22 µM | 5.96 µM and 20.9 µM | 20.1 µM and 24.5 µM | 28.2 µM and 27.7 µM | 25.6 µM and 19.9 µM | 5.87 µM and 6.81 µM | – | – | – | 1.43 µM and 3.12 µM | – | – | – | – | – | – | – |
| CN1CCN=C1c1nnn(-c2ccc([N+](=O)[O-])cc2)c1-c1ccccc1 | > 100 | > 100 µM | > 100 µM | – | > 100 µM | > 100 µM | > 100 µM | > 100 µM | > 100 µM | – | – | – | – | – | – | – | – | – | – | – |
| COc1ccc(-c2cc3ccccc3[nH]c2=O)cc1OC | – | > 100 µM | > 100 µM | > 100 µM | > 100 µM | > 100 µM | > 100 µM | – | > 100 µM | – | – | – | – | – | – | – | – | – | – | – |
| O=C1CC(C2(O)C(=O)Nc3ccc([N+](=O)[O-])cc32)c2ccccc21 (stereo unspecified) | > 100 | > 100 µM | 62.7 µM | 57.5 µM | 57.7 µM | > 100 µM | 37.8 µM | 75.6 µM | 45.1 µM | – | – | – | – | – | – | – | – | – | – | – |
| O=C1C(Cl)=C(Cl)C(=O)N1c1ccc(Cl)c(Cl)c1Cl | > 100 | > 100 µM | > 100 µM | > 100 µM | > 100 µM | > 100 µM | > 100 µM | > 100 µM | > 100 µM | – | – | – | – | – | – | – | – | – | – | – |
| COc1cc2c(cc1OC)C(C(CBr)CBr)N(C1CCCC1)CC2 (stereo unspecified) | > 100 | > 100 µM | > 100 µM | > 100 µM | > 100 µM | – | > 100 µM | > 100 µM | > 100 µM | – | – | – | – | – | – | – | – | – | – | – |
| COc1ccc(N2C(=O)[C@@H](N=[N+]=[N-])[C@@H]2[C@H]2COC(C)(C)O2)cc1 | – | > 100 µM | > 100 µM | > 100 µM | > 100 µM | > 100 µM | > 100 µM | > 100 µM | > 100 µM | – | – | – | – | – | – | – | – | – | – | – |
| Cc1cc(=O)[nH]c(NNC(C#N)c2ccccc2O)n1 (stereo unspecified) | – | 56.8 µM | > 100 µM | > 100 µM | > 100 µM | > 100 µM | > 100 µM | 75.9 µM | > 100 µM | – | – | – | – | – | – | – | – | – | – | – |
| Cc1ccccc1-n1c(=S)[nH]c2c(sc(=O)n2-c2ccccc2C)c1=O | > 100 | > 100 µM | > 100 µM | > 100 µM | > 100 µM | > 100 µM | > 100 µM | > 100 µM | > 100 µM | – | – | – | – | – | – | – | – | – | – | – |
| CCCCCCCC(=O)[O-].CCCCCCCC(=O)[O-].N.N.N.N.[Co+3].[O-][Cl+3]([O-])([O-])[O-] | – | > 100 µM | – | > 100 µM | > 100 µM | – | > 100 µM | – | > 100 µM | – | > 100 | – | > 100 µM | – | > 100 | – | 40.3 | – | – | > 100 |
| N#CC1=C(N)NC(N2CCOCC2)=NC12Nc1ccccc1O2 (stereo unspecified) | – | > 100 µM | > 100 µM | 61.3 µM | > 100 µM | – | > 100 µM | > 100 µM | 57.5 µM | – | 31.9 | 47.2 | 43 µM | – | 38.2 | 22.7 | 9.47 | 59.3 | > 100 | 15.4 |
| COc1ccc(NC(=O)CC(=O)N/N=C(\C)c2cc3ccccc3oc2=O)cc1 | – | > 100 µM | > 100 µM | > 100 µM | > 100 µM | > 100 µM | > 100 µM | > 100 µM | > 100 µM | – | – | – | – | – | – | – | – | – | – | – |
| CC(C)C1(NC(=O)C2CC3c4cccc5[nH]cc(c45)CC3N(C)C2)OC2(O)C3CCCN3C(=O)C(Cc3ccccc3)N2C1=O (stereo unspecified) | – | > 100 µM | > 100 µM | 39.8 µM | 80.4 µM | > 100 µM | > 100 µM | > 100 µM | > 100 µM | – | – | – | – | – | – | – | – | – | > 100 | – |
| COc1ccc(Br)c(CN2CCc3ccccc32)c1OS(=O)(=O)c1ccc(C)cc1 | – | > 100 µM | – | > 100 µM | > 100 µM | – | > 100 µM | – | – | – | – | – | – | – | – | – | – | – | – | – |
| CC1CCCC(C#N)(NOC2=NCCN2)C1 (stereo unspecified) | – | > 100 µM | > 100 µM | > 100 µM | > 100 µM | > 100 µM | > 100 µM | 34.2 µM | > 100 µM | – | 31.8 | 92.2 | 10.7 µM | 31.7 | 44.6 | 14.9 | 30.4 | 24.1 | > 100 | 38 |
| CCCCCCC(=O)C/C(CCC(=O)N(Cc1ccccc1)Cc1ccccc1)=N\NC(N)=O | > 100 | > 100 µM | > 100 µM | > 100 µM | > 100 µM | > 100 µM | > 100 µM | > 100 µM | > 100 µM | – | – | – | – | – | – | – | – | – | – | – |
| CC(C)=Cc1cc(CCC/C(C)=C/Cc2c(O)cc(C)c(C(=O)O)c2O)co1 | – | > 100 µM | > 100 µM | > 100 µM | – | > 100 µM | > 100 µM | > 100 µM | > 100 µM | – | – | – | – | – | – | – | – | – | > 100 | – |
| CC(C)=Cc1cc(C)c2ccc(C)c3c2c1C(C)=C(O)C3=O | – | > 100 µM | > 100 µM | 24.7 µM | 6.05 µM | 34.8 µM | > 100 µM | 28.9 µM | 71.6 µM | – | 23.5 | 28.7 | 1.19 µM | 17.7 | > 100 | 15.3 | 21 | 36.3 | > 100 | 4.38 |
| CC(/C=C/C(=O)c1sc(C(N)=S)nc1C)=C\c1ccccc1 | > 100 | > 100 µM | > 100 µM | 44.6 µM | > 100 µM | – | > 100 µM | > 100 µM | > 100 µM | – | – | – | – | – | – | – | – | – | – | – |
